Test results reported in patent publication US20240115654A1, “INTRAVENOUS ADMINISTRATION OF ENGINEERED ANTIMICROBIAL AMPHIPHILIC PEPTIDES” (priority 2021, published 2024).
Several values for one entry are separate records, joined by “and”; a condition that tells them apart may be missing. Identical values can stand only once. Like-named read-outs stand apart in the source and are kept apart here. Peptide text beside a SMILES is read from it.

What was measured:
[1] = 30 min IV infusion
Description: Animals will be obtained from the Test Facility's colony of adult male cynomolgous monkeys (Macaca fascicularis) of Chinese origin. Animals will be weighed prior to dosing.
Animals will be fasted a minimum of 2 hours prior to procedures requiring the administration of ketamine anesthesia. The diet will also be supplemented with other nutrients by feeding items such as raisins or fresh fruits that are presented to the animal as part of an environmental enrichment program. Offering items known to cause diarrhea will be avoided.
Intravenous administration will be via 30 minute infusion into a temporary percutaneous catheter placed into a saphenous vein. Prior to and following dose administration, the catheter will be flushed with 0.5 mL saline prior to removal. All dosing syringes will be weighed prior to and following dosing.
Serial blood samples will be collected via femoral vein (cephalic or saphenous, as necessary). Approximately 1 mL blood samples will be collected into K2EDTA tubes.
Blood samples will be collected into K2EDTA tubes and stored on wet ice. Whole blood will be processed to plasma by centrifugation (2400-2700 rpm at 5° C.) within 30 minutes of collection. Plasma samples will be split into 2 equal aliquots and stored at −80° C. until analysis.
Prior to extraction, a known concentration of a mass-adjusted internal standard (IS) will be added to assess recovery and allow for quantitation. Purified samples will be further subjected to high-performance liquid chromatography (HPLC) using C18 300 or 130 angstrom columns prior to MS/MS analysis. Multiple charge states will be observed by MS, so MS/MS will be employed to enable multiple reaction monitoring (MRM) analyses to determine the most MRM transitions with the highest signal-to-noise gain. Compound plasma concentrations will be determined by comparing to and compensating with co-purified IS peak intensity and validated calibrated standard curves.
Toxicokinetic parameters will be calculated using non-compartmental methods as implemented in the Phoenix® WinNonlin® ver. 6.3 comprehensive TK/PK analysis software program (Pharsight Corporation; Mountain View, CA) using an IV infusion model. Toxicokinetic analysis will be conducted using a 30-minute intravenous infusion time. Therefore, 30 minutes will be added to each sample time point postdose to obtain nominal time for TK analysis. Nominal times and dosage levels will be used for all calculations. Values below the lower limit of quantitation (BLQ) will be assigned a value of zero for the toxicokinetic calculations. Microsoft® Excel® 2013 will be used for receipt of bioanalytical data, minor formatting, including setting BLQ values to “0”, transfer into WinNonlin® for TK analysis, and calculation of the mean when an approximated value will be excluded. All plasma concentration data from all animals will be included in the analysis. Graphical presentations will be performed using Prism® for Macintosh ver. 7.0a (GraphPad, Inc.; La Jolla, CA).

[2] = IV infusion 1 mg/kg, Group 1, mean of rats
[3] = IV infusion 5 mg/kg, Group 2, mean of rats
[4] = IV infusion 10 mg/kg, Group 4, mean of rats

In the case of `CC(C)[C@H](NC(=O)[C@H](Cc1c[nH]c2ccccc12)NC(=O)[C@H](CCCNC(=N)N)NC(=O)[C@H](CCCNC(=N)N)NC(=O)[C@@H](NC(=O)[C@@H](NC(=O)[C@H](CCCNC(=N)N)NC(=O)[C@@H](NC(=O)[C@@H](NC(=O)[C@H](CCCNC(=N)N)NC(=O)[C@H](CCCNC(=N)N)NC(=O)[C@H](Cc1c[nH]c2ccccc12)NC(=O)[C@@H](NC(=O)[C@H](CCCNC(=N)N)NC(=O)[C@H](CCCNC(=N)N)NC(=O)[C@@H](NC(=O)[C@H](CCCNC(=N)N)NC(=O)[C@H](CCCNC(=N)N)NC(=O)[C@@H](NC(=O)[C@H](Cc1c[nH]c2ccccc12)NC(=O)[C@H](CCCNC(=N)N)NC(=O)[C@@H](N)CCCNC(=N)N)C(C)C)C(C)C)C(C)C)C(C)C)C(C)C)C(C)C)C(C)C)C(=O)N[C@@H](CCCNC(=N)N)C(=O)N[C@@H](CCCNC(=N)N)C(N)=O` [SEQ ID NO: 1] (H-RRWVRRVRRVWRRVVRVVRRWVRR-NH2), the “AUCinf Extrapolated” value ([1]; 1 mg/kg, Mean of group) is reported as 10.0%, the CL ([1]; 1 mg/kg, Mean of group) is reported as 18.5 mL/min/kg and the “Dose Normalized AUClast” value ([1]; 1 mg/kg, Mean of group) is reported as 983. For the same compound, the “Dose Normalized Cmax” value ([1]; 1 mg/kg, Mean of group) was 1710, the Vss ([1]; 1 mg/kg, Mean of group) was 1.38 L/kg and the CL ([1]; 1 mg/kg, individual monkeys) was 9.65 mL/min/kg. The “Dose Normalized AUClast” value ([1]; 1 mg/kg, individual monkeys) was 740 and 1610 and 595, the “Dose Normalized Cmax” value ([1]; 1 mg/kg, individual monkeys) was 1460 and 2660 and 997 and the “AUCinf Extrapolated” value ([1]; 3 mg/kg, Mean of group) was 1.5%. For the same compound, the CL ([1]; 3 mg/kg, Mean of group) was 7.18 mL/min/kg, the “Dose Normalized AUClast” value ([1]; 3 mg/kg, Mean of group) was 2530 and the “Dose Normalized Cmax” value ([1]; 3 mg/kg, Mean of group) was 3450. For the same compound, the T1/2 ([1]; 3 mg/kg, Mean of group) was 5.2 h, the Tmax ([1]; 3 mg/kg, Mean of group) was 6.6 min and the “AUCinf Extrapolated” value ([1]; 3 mg/kg, individual monkeys) was 1.2% and 2.3% and 1.1%. The “Dose Normalized AUClast” value ([1]; 3 mg/kg, individual monkeys) was 2220 and 3660 and 1710, the “Dose Normalized Cmax” value ([1]; 3 mg/kg, individual monkeys) was 2280 and 5170 and 2900 and the T1/2 ([1]; 3 mg/kg, individual monkeys) was 5 h. For the same compound, the “AUCinf Extrapolated” value ([1]; 10 mg/kg, Mean of group) was 1.3%, the CL ([1]; 10 mg/kg, Mean of group) was 6.32 mL/min/kg and the “Dose Normalized AUClast” value ([1]; 10 mg/kg, Mean of group) was 5030. For the same compound, the “Dose Normalized Cmax” value ([1]; 10 mg/kg, Mean of group) was 3820, the T1/2 ([1]; 10 mg/kg, Mean of group) was 4.6 h and the “AUCinf Extrapolated” value ([1]; 10 mg/kg, individual monkeys) was 1.0% and 1.8% and 0.99%. For the same compound, the CL ([1]; 10 mg/kg, individual monkeys) was 7.5 mL/min/kg, the “Dose Normalized Cmax” value ([1]; 10 mg/kg, individual monkeys) was 2600 and 2430 and 6430 and the T1/2 ([1]; 10 mg/kg, individual monkeys) was 4.3 h and 4.9 h and 4.6 h. The AUCinf_D [2] was 787 kg·ng·h/mL/ng, the CL [2] was 21.87 mL/min/kg and the Extrapolated [2] was 3.28%. The Vss [2] was 3.401 L/kg, the Vz [2] was 10.884 L/kg and the AUCinf_D [3] was 5158 kg·ng·h/mL/ng. It also gave an Extrapolated [3] of 0.424%, a Vss [3] of 0.229 L/kg and a Vz [3] of 1.533 L/kg. It also gave an AUCinf_D [4] of 8049 kg·ng·h/mL/ng, a CL [4] of 2.12 mL/min/kg and an Extrapolated [4] of 0.186%. It also gave a Vz [4] of 0.749 L/kg.
